Here are results for 47 compounds from PubChem BioAssay AID493058 (The Scripps Research Institute Molecular Screening Center, 2011).

Activity calls are given as the source filed them.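 Rule for the calls: active = EC50 of 10 µM or lower; inactive = EC50 above 10 µM.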

The test system of this assay is DHL10 Bax/Bak-deficient cells, cytotoxicity, MTS absorbance. The experiment in a line: DHL10 Bax/Bak-null cell killing – MTS absorbance, EC50, counter-screen for MCL1-BIM inhibitor project, late-stage follow-up (AID 493058). In general terms: Counterscreens check selectivity or assay interference.

Usually EC50 stands for the concentration at which the effect is half-maximal. With `O=C(c1cc(-c2ccco2)nc2ccccc12)N1CCCC(C(F)(F)F)C1` (configuration not stated), the EC50 is > 25 µM (inactive).

In the case of `CC1CCCN(C(=O)c2cc(-c3ccco3)nc3ccccc23)C1` (configuration not stated), the EC50 is > 25 µM (inactive).

For the compound `COc1ccc(Cc2nnc(NC(=O)Cc3ccc4c(c3)OCO4)s2)cc1OC`, the EC50 is > 25 µM (inactive).

`CN(CC(=O)Nc1ccc(F)cc1)C(=O)c1cc(-c2ccco2)nc2ccccc12`: the EC50 is > 25 µM (inactive).

Consider `COc1ccc(Cc2nnc(NC(=O)C3(c4ccccc4)CC3)s2)cc1OC`, for which the EC50 is > 25 µM (inactive).

As for `COc1ccccc1CC(=O)Nc1nnc(Cc2ccc(OC)c(OC)c2)s1`, the EC50 is > 25 µM (inactive).

For `CCc1nnc(NC(=O)c2cc(-c3ccc(C)o3)nc3ccccc23)s1`, the EC50 was > 25 µM (inactive).

With `Cc1ccc(-c2cc(C(=O)N3CC(C)OC(C)C3)c3ccccc3n2)o1` (configuration not stated), the EC50 was > 25 µM (inactive).

On to `Cc1ccc(-c2cc(C(=O)N3CC(C)CC(C)C3)c3ccccc3n2)o1` (configuration not stated), for which the EC50 is > 25 µM (inactive).

On to `O=C(NC1CCC(O)CC1)c1cc(-c2ccco2)nc2ccccc12` (configuration not stated), for which the EC50 was > 25 µM (inactive).

With `O=C(c1cc(-c2ccco2)nc2ccccc12)N1CCN(c2ccc(F)cc2)CC1`, the EC50 was > 25 µM (inactive).

Regarding `COc1ccc(Cc2nnc(NC(=O)CCc3ccco3)s2)cc1OC`, the EC50 was > 25 µM (inactive).

Regarding `Cc1ccc(-c2cc(C(=O)N(C)CC(=O)Nc3ccccc3Br)c3ccccc3n2)o1`, the EC50 was > 25 µM (inactive).

With `Cc1ccc(-c2cc(C(=O)Nc3cccc(S(=O)(=O)N(C)C)c3)c3ccccc3n2)o1`, the EC50 was > 25 µM (inactive).

Take `CCCCn1c(N)c(N(CCOC)C(=O)c2cc(-c3ccco3)nc3ccccc23)c(=O)[nH]c1=O`: the EC50 is > 25 µM (inactive).

With `CC(=O)N1CCN(C(=O)c2cc(-c3ccc(C)o3)nc3ccccc23)CC1`, the EC50 was > 25 µM (inactive).

With `COc1cccc(CC(=O)Nc2nnc(Cc3ccc(OC)c(OC)c3)s2)c1`, the EC50 is > 25 µM (inactive).

Turning to `CN(CCOc1ccccc1)C(=O)c1cc(-c2ccco2)nc2ccccc12`, the EC50 was > 25 µM (inactive).

With `NS(=O)(=O)c1ccc(CCNC(=O)c2cc(-c3ccco3)nc3ccccc23)cc1`, the EC50 was > 25 µM (inactive).

Regarding `Cc1ccc(NC(=O)c2cc(-c3ccc(C)o3)nc3ccccc23)cc1`, the EC50 is > 25 µM (inactive).

Consider `O=C(Nc1cccnc1)c1cc(-c2ccco2)nc2ccc(Br)cc12`, for which the EC50 was > 25 µM (inactive).

As for `CCCn1c(N)c(N(CCOC)C(=O)c2cc(-c3ccco3)nc3ccccc23)c(=O)[nH]c1=O`, the EC50 is > 25 µM (inactive).

Take `Cc1ccc(NC(=O)c2cc(-c3ccc(C)o3)nc3ccccc23)nc1`: the EC50 is > 25 µM (inactive).

As for `COc1ccc(Cc2nnc(NC(=O)CCc3cccs3)s2)cc1OC`, the EC50 was > 25 µM (inactive).

For `O=C(Nc1ccccc1F)c1cc(-c2ccco2)nc2ccccc12`, the EC50 is > 25 µM (inactive).

Regarding `COc1ccc(Cc2nnc(NC(=O)Cc3cccc(Br)c3)s2)cc1OC`, the EC50 is > 25 µM (inactive).

Take `COc1cccc(NC(=O)CN(C)C(=O)c2cc(-c3ccc(C)o3)nc3ccccc23)c1`: the EC50 was > 25 µM (inactive).

With `COc1ccc(Cc2nnc(NC(=O)Cc3cc(F)cc(F)c3)s2)cc1OC`, the EC50 was > 25 µM (inactive).

Consider `O=C(NC(=S)Nc1cccc(S(=O)(=O)NC2=NCCC2)c1)c1cc(-c2ccco2)nc2ccccc12`, for which the EC50 was > 25 µM (inactive).

For the compound `COc1ccc(Cc2nnc(NC(=O)Cc3ccc(C)cc3)s2)cc1OC`, the EC50 was > 25 µM (inactive).

Turning to `Cc1ccc(-c2cc(C(=O)NCC(c3ccccc3)N(C)C)c3ccccc3n2)o1` (configuration not stated), the EC50 was > 25 µM (inactive).

As for `CC(=O)c1cccc(NC(=O)c2cc(-c3ccco3)nc3ccccc23)c1`, the EC50 was > 25 µM (inactive).

`COc1ccc(Cc2nnc(NC(=O)c3cc(-c4ccco4)nc4ccc(Br)cc34)s2)cc1OC`: the EC50 was 20 µM (inactive).

Turning to `CCOC(=O)c1cc(-c2ccco2)nc2c1c(C)nn2-c1cccc(Cl)c1`, the EC50 is > 25 µM (inactive).

On to `O=C(CCn1nnc2ccccc21)Nc1nnc(Cc2ccccc2)s1`, for which the EC50 is > 25 µM (inactive).

Consider `O=C(Nc1cccc(S(=O)(=O)NC2=NCCC2)c1)c1cc(-c2ccco2)nc2ccccc12`, for which the EC50 is > 25 µM (inactive).

Turning to `O=C(Nc1nc2ccccc2s1)c1cc(-c2ccco2)nc2ccccc12`, the EC50 was > 25 µM (inactive).

As for `COc1ccc(Cc2nnc(NC(=O)C(=O)c3ccco3)s2)cc1OC`, the EC50 was > 25 µM (inactive).

Regarding `CCOc1cc(N2CCOCC2)c(OCC)cc1NC(=O)c1cc(-c2ccco2)nc2ccccc12`, the EC50 is > 25 µM (inactive).

Take `Cc1cccc(NC(=O)c2cc(-c3ccco3)nc3ccccc23)n1`: the EC50 is > 25 µM (inactive).

Take `COc1ccc(Cc2nnc(NC(=O)Cc3ccsc3)s2)cc1OC`: the EC50 is > 25 µM (inactive).

Consider `O=C(Cc1cccs1)Nc1nnc(Cc2ccccc2)s1`, for which the EC50 is > 25 µM (inactive).

Turning to `COc1ccc(Cc2nnc(NC(=O)C(F)c3ccccc3)s2)cc1OC` (configuration not stated), the EC50 was > 25 µM (inactive).

`O=C(CCn1nnc2ccccc21)Nc1nnc(Cc2ccc(F)cc2)s1`: the EC50 was > 25 µM (inactive).

On to `CN(C)C(=O)c1ccc(NC(=O)c2cc(-c3ccco3)nc3ccccc23)cc1`, for which the EC50 is > 25 µM (inactive).

On to `Cc1ccc2nc(NC(=O)c3cc(-c4ccco4)nc4ccccc34)sc2c1`, for which the EC50 was > 25 µM (inactive).

As to `CN(CCOc1ccc(Cl)cc1)C(=O)c1cc(-c2ccco2)nc2ccccc12`, the EC50 is > 25 µM (inactive).
